In patent publication US20090017139A1, “Iodine therapy dosing for treating medical conditions” (priority 2007, published 2009):

How the values were obtained:
estrogen receptor = test: Example 5: immunocytochemical detection of estrogen receptor in vaginal smears after 2 months of daily I2; format: in vivo, Sprague-Dawley rats; details: for Immunocytochemical Detection of Estrogen Receptor, Scores (mean ± SD), End: after 2 months daily dosing; for Immunocytochemical Detection of Estrogen Receptor, Scores (mean ± SD), End / Immunocytochemical Detection of Estrogen Receptor, Scores (mean ± SD), Baseline: scale +1 to +3, dissolved IoGen tablets; for Immunocytochemical Detection of Estrogen Receptor, Scores (mean ± SD), Baseline: before dosing
Text: (§1) A total of 24 nulliparous and nonpregnant female Sprague-Dawley rats were received from Charles River Laboratories, Kingston, N.Y. The animals were 10 weeks of age and were examined for signs of disease or injury upon receipt. The animals were housed in stainless steel cages and fed LabDiet™ Certified Rodent Chow 5002 (PMI Feeds, Inc., a subsidiary of Purina Mills, Inc.) ad libitum and were provided fresh filtered tap water ad libitum. Environmental controls were set to maintain a temperature of 18 to 26° C. and a relative humidity of 30 to 70%. A 12-hour light/dark cycle was employed and the room underwent a minimum of ten fresh air changes/hour.
(§2) The animals were allowed to acclimate to laboratory conditions for 2 weeks. No abnormal findings excluding animals from study were noted. The animals were released from conditioning following an examination. Each animal was identified with a unique number that was indicated by ear punch. Cage labels, color-coded by group, identified each cage. The animals were maintained at laboratory conditions for an additional 2 weeks and then randomized into treatment groups by weight.
Tablets of IoGen, a registered trademark of Symbollon Pharmaceuticals Inc. of Framingham Mass. USA were dissolved in distilled water. IoGen tablets are compositions of iodide and iodate in a pharmaceutically acceptable carrier which will form molecular iodine “I2” once in contact with the gastric fluid in the stomach via a diffusion controlled oxidation reduction reaction as taught in U.S. Pat. No. 5,885,592 the disclosure of which is incorporated herein by reference. For this example the IoGen tablets weighted 400 mg and contained the equivalent of 6 mg of I2 in the form of iodide and iodate. The dissolved IoGen tables were used to provide defined daily doses of I2 to rats according to Table 1 below.
After randomization vaginal smears were taken from rats using a cotton swab; the swab was inserted into the vagina and rotated 360° in a clockwise direction, then the swab was smeared onto a glass slide and the smear was fixed in 3.7% formaldehyde with phosphate buffered saline (PBS) for 15 minutes. The slides were washed in PBS for 5 minutes and subsequently immersed in cold methanol and acetone (both at −10° C.) for 3 minutes. After a final rinse in cold PBS for 5 minutes the slides were stored at −20° C. in a solution of PBS-glycerol.
Rats were then dosed daily for the next 2 months according to the schedule in Table 1. […] After 2 months of daily dosing vaginal swabs were taken again and slides were prepared as on day 1 of the dosing regimen.
Immunocytochemical (IC) detection of estrogen receptor (hereafter “ER”) status was accomplished using mouse monoclonal antibody 6F11 from Vector Laboratories (Burlingame, Calif.). A gentle stream of 10 mM citrate buffer (pH 6.0) was passed over each slide for 45 minutes and then a 1/25 dilution of the antibody was incubated with slides at room temperature for 30 minutes. Slides were washed and the Vectastain ABC Kit for Mouse IgG (Vector Laboratories; Burlingame, Calif.) was used to visualize ER. The chromophone 3,3′ diaminobenzidine and peroxidase were used to stain areas of the slides that contained ER. The intensity of staining was scored semi quantitatively on a scale of +1 to +3. Each dosing group contained 6 animals.

iodine naive women = test: Example 3: I2 safety study, treatment emergent thyroid status in iodine naive women; format: in vivo, human; details: for Hyperthyroidism Overt ↓TSH ↑T4 / Hyperthyroidism Sub-clinical ↓TSH / Hypothyroidism Overt ↑TSH (5-10) ↓T4 / Hypothyroidism Overt ↑TSH (10-20) ↓T4 / Hypothyroidism Overt ↑TSH (>20) ↓T4 / Hypothyroidism Sub-clinical ↑TSH (5-10) / Hypothyroidism Sub-clinical ↑TSH (10-20) / Hypothyroidism Sub-clinical ↑TSH (>20): iodine naive, patients (percent of dose group)
Method: A second I2 safety study was conducted in women not previously exposed to iodine therapy (iodine naïve). […] Thyroid functions laboratory values were available for 365 patients. The age of the female participants ranged from 20 to 55; the average age was 42.4 years. Variations in treatment emergent thyroid status were evaluated based on TSH and T4 values (see Table 2). […] Patients were categorized sub-clinical hypothyroid if TSH was elevated and T4 values were normal; patients with depressed T4 values were considered overtly hypothyroid.
Sub-clinical hyperthyroidism is not correlated to an increased rate of either overt hyperthyroidism or overt hypothyroidism. On the other hand, it is well established that sub-clinical hypothyroidism is a risk factor for overt hypothyroidism. In fact, as stated in Example 2, antibodies to thyroid peroxidase combined with sub-clinical hypothyroidism are established risk factors for overt thyroid disease in women between the age of 30 and 50. Therefore the key question is whether or not dose is related to the frequency of sub-clinical hypothyroidism. Kendall's rank correlation was used to evaluate the relationship between dose and frequency of sub-clinical hypothyroidism.

[1] = Example 5: daily feed consumption and weight during 2 months of daily dosing; format: in vivo, Sprague-Dawley rats; details: 2 months daily dosing, .06 to 2 mg I2/kg/day
Text: as §1, §2
Tablets of IoGen, a registered trademark of Symbollon Pharmaceuticals Inc. of Framingham Mass. USA were dissolved in distilled water. […]

[2] = reacts with water at neutral pH; cited from earlier work
[3] = I2 compared to iodide, cited from earlier work

## II [I2, molecular iodine]
Estrogen receptor; Group 2, .06 mg I2/kg/day
  Immunocytochemical Detection of Estrogen Receptor, Scores (mean ± SD), End: 1.167 ± 0.752
  Immunocytochemical Detection of Estrogen Receptor, Scores (mean ± SD), Baseline: 2.000 ± 0.632
Estrogen receptor; Group 3, 0.2 mg I2/kg/day
  Immunocytochemical Detection of Estrogen Receptor, Scores (mean ± SD), End: 1.167 ± 0.408
  Immunocytochemical Detection of Estrogen Receptor, Scores (mean ± SD), Baseline: 2.167 ± 0.753
Estrogen receptor; Group 4, 2 mg I2/kg/day
  Immunocytochemical Detection of Estrogen Receptor, Scores (mean ± SD), End: 0.833 ± 0.408
  Immunocytochemical Detection of Estrogen Receptor, Scores (mean ± SD), Baseline: 2.333 ± 0.516
Estrogen receptor; trend across the 3 dosing groups p<0.001
  effect of daily treatment on ER in the endometrium: down regulation of ER
Estrogen receptor; unpaired t-test, p=0.015
  change from baseline to end in ER score, placebo versus all rats that received I2: statistically significant difference
Iodine naive women; I2 2.0 mg/d
  Hyperthyroidism Overt ↓TSH ↑T4: 0 (0.0)
  Hyperthyroidism Sub-clinical ↓TSH: 2 (3.4)
  Hypothyroidism Overt ↑TSH (5-10) ↓T4: 1 (1.7)
  Hypothyroidism Overt ↑TSH (10-20) ↓T4: 0 (0.0)
  Hypothyroidism Overt ↑TSH (>20) ↓T4: 0 (0.0)
  Hypothyroidism Sub-clinical ↑TSH (5-10): 3 (5.2)
  Hypothyroidism Sub-clinical ↑TSH (10-20): 2 (3.4)
  Hypothyroidism Sub-clinical ↑TSH (>20): 0 (0.0)
Iodine naive women; I2 3.0 mg/d
  Hyperthyroidism Overt ↓TSH ↑T4: 2 (3.2)
  Hyperthyroidism Sub-clinical ↓TSH: 0 (0.0)
  Hypothyroidism Overt ↑TSH (5-10) ↓T4: 0 (0.0)
  Hypothyroidism Overt ↑TSH (10-20) ↓T4: 0 (0.0)
  Hypothyroidism Overt ↑TSH (>20) ↓T4: 0 (0.0)
  Hypothyroidism Sub-clinical ↑TSH (5-10): 5 (8.1)
  Hypothyroidism Sub-clinical ↑TSH (10-20): 0 (0.0)
  Hypothyroidism Sub-clinical ↑TSH (>20): 0 (0.0)
Iodine naive women; I2 6.0 mg/d
  Hyperthyroidism Overt ↓TSH ↑T4: 0 (0.0)
  Hyperthyroidism Sub-clinical ↓TSH: 2 (3.3)
  Hypothyroidism Overt ↑TSH (5-10) ↓T4: 0 (0.0)
  Hypothyroidism Overt ↑TSH (10-20) ↓T4: 0 (0.0)
  Hypothyroidism Overt ↑TSH (>20) ↓T4: 1 (1.7)
  Hypothyroidism Sub-clinical ↑TSH (5-10): 6 (10)
  Hypothyroidism Sub-clinical ↑TSH (10-20): 0 (0.0)
  Hypothyroidism Sub-clinical ↑TSH (>20): 0 (0.0)
Iodine naive women; I2 9.0 mg/d
  Hyperthyroidism Overt ↓TSH ↑T4: 2 (3.5)
  Hyperthyroidism Sub-clinical ↓TSH: 2 (3.5)
  Hypothyroidism Overt ↑TSH (5-10) ↓T4: 2 (3.5)
  Hypothyroidism Overt ↑TSH (10-20) ↓T4: 0 (0.0)
  Hypothyroidism Overt ↑TSH (>20) ↓T4: 1 (1.8)
  Hypothyroidism Sub-clinical ↑TSH (5-10): 8 (14)
  Hypothyroidism Sub-clinical ↑TSH (10-20): 0 (0.0)
  Hypothyroidism Sub-clinical ↑TSH (>20): 0 (0.0)
Iodine naive women; I2 .03 mg/d
  Hyperthyroidism Overt ↓TSH ↑T4: 0 (0.0)
  Hyperthyroidism Sub-clinical ↓TSH: 1 (1.5)
  Hypothyroidism Overt ↑TSH (5-10) ↓T4: 0 (0.0)
  Hypothyroidism Overt ↑TSH (10-20) ↓T4: 0 (0.0)
  Hypothyroidism Overt ↑TSH (>20) ↓T4: 0 (0.0)
  Hypothyroidism Sub-clinical ↑TSH (5-10): 3 (4.6)
  Hypothyroidism Sub-clinical ↑TSH (10-20): 0 (0.0)
  Hypothyroidism Sub-clinical ↑TSH (>20): 0 (0.0)
Iodine naive women; Kendall's rank correlation p 0.0167, Cuzik's trend test p less than 0.01
  relationship between daily dose and frequency of sub-clinical hypothyroidism: correlated to the frequency of sub-clinical hypothyroidism
Iodine naive women; iodine naive patients
  Overt hypothyroidism, patients (second statement, compared to prevalence of overt hyperthyroidism): 1.6%
Iodine naive women; iodine naive patients, Fisher's exact test
  incidence of abnormal thyroid function, placebo versus treatment groups: did not differ
Iodine naive women; iodine naive patients, first statement
  Overt hypothyroidism, patients: 1.3%
[1]
  daily feed consumption or weight, placebo versus treated groups: no statistically significant differences
[2]
  maximum period of storage in an aqueous environment: 2 to 8 h
[3]
  percentage of administered iodine retained in the stomach contents and covalently bound to a lipid material: larger percentage
  percentage of iodine retained in thyroid 72 hours after administration, compared to iodide: significantly less
[3]; fasted rats, acute exposure
  retention of iodine in thyroid at 72 hours, less than with iodide: about 30%
